Measured values published in ChEMBL document CHEMBL4831514, “Novel betulin dicarboxylic acid ester derivatives as potent antiviral agents: Design, synthesis, biological evaluation, structure-activity relationship and in-silico study” (Eur J Med Chem, 2021).
The source made the active and inactive calls. The rule behind the calls is not given here.

Assays:
A549 = test: Cytotoxicity against human A549 cells assessed as reduction in cell viability incubated for 48 hrs by MTT assay; type: cell-based; settings: a549, 48 h
MDCK = test: Cytotoxicity against MDCK cells assessed as reduction in cell viability incubated for 72 hrs by MTT assay; type: cell-based, Canis lupus familiaris; settings: dog, mdck, 72 h
Human alphaherpesvirus 1 [1] = test: Antiviral activity against Human herpesvirus-1 MacIntyre infected in A549 cells assessed as inhibition of viral adsorption at early stage of replication treated for 1 hr during viral infection followed by replacement with fresh medium and measured after 48 hrs by MTT assay; type: functional, organism-based
Enterovirus E = test: Antiviral activity against Enterovirus E LCR-4 infected in A549 cells assessed as inhibition of viral adsorption at early stage of replication treated for 1 hr during viral infection followed by replacement with fresh medium and measured after 72 hrs by MTT assay; type: functional, organism-based
Human adenovirus 5 [2] = test: Antiviral activity against Human adenovirus 5 Adenoid 75 infected in A549 cells assessed as inhibition of viral adsorption at early stage of replication treated for 1 hr during viral infection followed by replacement with fresh medium and measured after 72 hrs by MTT assay; type: functional, organism-based
[3] = tested on: Vesicular stomatitis virus; test: Antiviral activity against Vesicular stomatitis virus Indiana infected in A549 cells assessed as reduction in virus titer preincubated for 24 hrs followed by viral infection and measured after 72 hrs by microscopic analysis; type: functional, organism-based
Human alphaherpesvirus 1 [4] = test: Antiviral activity against Human herpesvirus 1 MacIntyre infected in A549 cells assessed as reduction in virus titer preincubated for 24 hrs followed by viral infection and measured after 72 hrs by microscopic analysis; type: functional, organism-based
Human adenovirus 5 [5] = test: Antiviral activity against Human adenovirus 5 Adenoid 75 infected in A549 cells assessed as reduction in virus titer preincubated for 24 hrs followed by viral infection and measured after 72 hrs by microscopic analysis; type: functional, organism-based

Compound	CC20 (A549)	CC20 (MDCK)	Activity (Human alphaherpesvirus 1 [1])	Activity (Enterovirus E)	Activity (Human adenovirus 5 [2])	Activity [3]	Activity (Human alphaherpesvirus 1 [4])	Activity (Human adenovirus 5 [5])
C=C(C)[C@@H]1CCC2(COC(=O)CCCCCCCCCC(=O)N3CCSCC3)CC[C@]3(C)[C@H](CC[C@@H]4[C@@]5(C)CC[C@H](O)C(C)(C)[C@@H]5CC[C@]43C)[C@@H]12 (single isomer, unassigned)	114.81 µM	114.81 µM	inactive	inactive	inactive	inactive	inactive	inactive
C#CCNC(=O)/C(C)=C/C(=O)OC[C@]12CC[C@@H](C(=C)C)[C@@H]1[C@H]1CC[C@@H]3[C@@]4(C)CC[C@H](O)C(C)(C)[C@@H]4CC[C@@]3(C)[C@]1(C)CC2	10.56 µM	84.46 µM	inactive	inactive	inactive	inactive	inactive	inactive
C=C(C)[C@@H]1CC[C@]2(COC(=O)/C=C(\C)C(=O)N3CCSCC3)CC[C@]3(C)[C@H](CC[C@@H]4[C@@]5(C)CC[C@H](O)C(C)(C)[C@@H]5CC[C@]43C)[C@@H]12	61.5 µM	61.5 µM	inactive	inactive	inactive	inactive	inactive	inactive
C#CC1(NC(=O)CCCCCCCCCC(=O)OC[C@]23CC[C@@H](C(=C)C)[C@@H]2[C@H]2CCC4[C@@]5(C)CC[C@H](O)C(C)(C)[C@@H]5CC[C@@]4(C)[C@]2(C)CC3)CCCCC1 (single isomer, unassigned)	102.46 µM	102.46 µM	inactive	inactive	inactive	inactive	inactive	inactive
C#CCNC(=O)CCC(=O)OC[C@]12CC[C@@H](C(=C)C)C1[C@H]1CC[C@@H]3[C@@]4(C)CC[C@H](O)C(C)(C)[C@@H]4CC[C@@]3(C)[C@]1(C)CC2 (single isomer, unassigned)	10.78 µM	5.34 µM	inactive	inactive	inactive	inactive	inactive	inactive
C=C(C)[C@@H]1CC[C@]2(COC(=O)c3cccc(C(=O)N4CCSCC4)c3)CC[C@]3(C)[C@H](CC[C@@H]4[C@@]5(C)CC[C@H](O)C(C)(C)[C@@H]5CC[C@]43C)C12 (single isomer, unassigned)	117.79 µM	117.79 µM	inactive	inactive	inactive	inactive	inactive	inactive
C=C(C)[C@@H]1CC[C@]2(COC(=O)CCC(=O)N3CCSCC3)CC[C@]3(C)[C@H](CC[C@@H]4[C@@]5(C)CC[C@H](O)C(C)(C)[C@@H]5CC[C@]43C)[C@@H]12	62.42 µM	124.84 µM	inactive	inactive	inactive	inactive	inactive	inactive
C=C(C)[C@@H]1CC[C@]2(COC(=O)CCCC(=O)N3CCSCC3)CC[C@]3(C)[C@H](CC[C@@H]4[C@@]5(C)CC[C@H](O)C(C)(C)[C@@H]5CC[C@]43C)[C@@H]12	122.7 µM	61.35 µM	inactive	inactive	inactive	inactive	inactive	inactive
C=C(C)[C@@H]1CC[C@]2(CO)CC[C@]3(C)[C@H](CC[C@@H]4[C@@]5(C)CC[C@H](O)C(C)(C)[C@@H]5CC[C@]43C)[C@@H]12 [BETULIN]	28.22 µM	28.22 µM	inactive	inactive	inactive	inactive	inactive	inactive
C#CCNC(=O)c1cccc(C(=O)OC[C@]23CC[C@@H](C(=C)C)[C@@H]2[C@H]2CC[C@@H]4C5(C)CC[C@H](O)C(C)(C)[C@@H]5CC[C@@]4(C)[C@]2(C)CC3)c1 (single isomer, unassigned)	159.24 µM	159.24 µM	inactive	inactive	inactive	inactive	inactive	inactive
C=C(C)[C@@H]1CC[C@]2(COC(=O)CCC(=O)O)CC[C@]3(C)[C@H](CC[C@@H]4[C@@]5(C)CCC(O)C(C)(C)[C@@H]5CC[C@]43C)[C@@H]12 (single isomer, unassigned)	11.51 µM	11.51 µM	inactive	inactive	inactive	inactive	inactive	inactive
C#CC1(NC(=O)CCC(=O)OC[C@]23CC[C@@H](C(=C)C)[C@@H]2[C@H]2CC[C@@H]4[C@@]5(C)CC[C@H](O)C(C)(C)[C@@H]5CC[C@@]4(C)[C@]2(C)CC3)CCCCC1	110.38 µM	0.77 µM	inactive	inactive	inactive	inactive	inactive	inactive
C#CCNC(=O)CCCCCCCCCC(=O)OC[C@]12CC[C@@H](C(=C)C)[C@@H]1[C@H]1CC[C@@H]3[C@@]4(C)CC[C@H](O)C(C)(C)[C@@H]4CC[C@@]3(C)[C@]1(C)CC2	38.46 µM	153.85 µM	inactive	inactive	inactive	inactive	inactive	inactive
C=C(C)[C@@H]1CC[C@]2(COC(=O)CCC(=O)N3CCCCC3)CC[C@]3(C)[C@H](CC[C@@H]4[C@@]5(C)CCC(O)C(C)(C)[C@@H]5CC[C@]43C)[C@@H]12 (single isomer, unassigned)	69.83 µM	17.46 µM	inactive	inactive	inactive	inactive	inactive	inactive
C#CC1(NC(=O)c2ccccc2C(=O)OC[C@]23CC[C@@H](C(=C)C)[C@@H]2[C@H]2CC[C@@H]4[C@@]5(C)CC[C@H](O)C(C)(C)[C@@H]5CC[C@@]4(C)[C@]2(C)CC3)CCCCC1	109.82 µM	1.57 µM	inactive	inactive	inactive	inactive	inactive	inactive
C=C(C)[C@@H]1CC[C@]2(COC(=O)/C=C(\C)C(=O)O)CC[C@]3(C)[C@H](CC[C@@H]4[C@@]5(C)CC[C@H](O)C(C)(C)[C@@H]5CC[C@]43C)[C@@H]12	11.26 µM	5.63 µM	inactive	inactive	inactive	inactive	inactive	inactive
Nc1ccn(C[C@@H](CO)OCP(=O)(O)O)c(=O)n1.O.O [CIDOFOVIR]	358.42 µM		inactive	inactive	inactive			
C=C(C)[C@@H]1CC[C@]2(COC(=O)c3cccc(C(=O)N4CCOCC4)c3)CC[C@]3(C)[C@H](CC[C@@H]4[C@@]5(C)CC[C@H](O)C(C)(C)[C@@H]5CC[C@]43C)[C@@H]12	71.74 µM	143.47 µM	inactive	inactive	inactive	inactive	inactive	inactive
C#CCNC(=O)CCCC(=O)OC[C@]12CC[C@@H](C(=C)C)[C@@H]1[C@H]1CC[C@@H]3[C@@]4(C)CC[C@H](O)C(C)(C)[C@@H]4CC[C@@]3(C)[C@]1(C)CC2	42.09 µM	1.18 µM	inactive	inactive	inactive	inactive	inactive	inactive
C=C(C)[C@@H]1CC[C@]2(COC(=O)CCCCCCCCCC(=O)N3CCCCC3)CC[C@]3(C)[C@H](CC[C@@H]4[C@@]5(C)CC[C@H](O)C(C)(C)[C@@H]5CC[C@]43C)[C@@H]12	127.23 µM	127.84 µM	inactive	inactive	inactive	inactive	inactive	inactive
